Structures are written as SMILES.

The test has as its system Aβ1-42-injected mice (short-term spatial memory). In words: Alzheimer's disease mouse model using intrahippocampal injection of oligomers of amyloid beta; forced alternation Y-maze test. Format: in vivo, C57BL6 mice. To be noted: for Cumulative duration (sec) in the new arm of the Y-maze: Aβ1-42 (2 μL/side, 100 μM) injected mice, n = 12, daily treatment, Compounds 5 mg/kg p.o., Donepezil 1 mg/kg i.p., group mean, Aβ1-42 + vehicle group 78.9, sham 115.5.

[1] abbreviates: compared to Aβ1-42-injected, vehicle treated mice (group ID 2), 5 mg/kg p.o. daily.

Method: This study evaluated the cognitive functions of the mice after a chronic administration of the compounds, after the ApO injury.
The forced alternation Y-maze test relies on the natural tendency of rodents to explore new environments and was used to evaluate short-term spatial memory and exploratory behavior of injured mice.
18-month-old male C57BL6 mice (Janvier Labs) were housed for acclimatation for 1 week in Neuro-Sys facilities and were maintained in a reversed 12 h light-dark cycle. The animals were group-housed (2-4 animals per cage) and maintained in room with controlled temperature (21-22° C.) and hygrometry (40-60%) and with food and water available ad libitum.
After one week of acclimatization, all the mice were subjected to a bilateral hippocampal stereotaxic surgery determined relative to the bregma according to the Paxinos and Franklin's mouse brain atlas(Yeung et al. 2020).
The Aβ1-42 preparation were done following the procedure described by Callizot (Callizot et al. 2013). Briefly, Aβ1-42 peptide (Bachem, 1071428, CAS #107761-42-2) was dissolved in the vehicle (0.5% Methylcellulose in water (w/v)), at an initial concentration of 100 μM. This solution was gently agitated for 3 days at 37° C. in the dark.
After agitation, the Aβ1-42 preparation were bilaterally injected into the stratum oriens, striatum pyramidal and striatum radiatum of the CA1 area of the hippocampus at three different depths within the CA1 region. Stereotaxic bilateral administration of 2 μL/side of Aβ1-42 preparation (100 μM, containing ˜15 mol/L of oligomers precisely measured by automatic WB), or vehicle, were bilaterally injected with a Hamilton syringe in the CA 1 area of the hippocampus (0.2 μL/min with an Elite Nanomite syringe pump).
All treatments started the day before the stereotaxic injections of A31-42 and were administrated daily until the last day of the experiment at which point different tissue samples were collected.
Test compounds were administered by oral gavage (p.o.).
Preparation with vehicle 1: The required amount of the test compound was weighted and placed in a glass tube. The compound was dissolved in 0.5% Methylcellulose in water (w/v) corresponding to 100% of the final volume and vortexed. The formulation (glass vial) was placed in an ultrasonic bath for 30 min.
Preparation with vehicle 2: The required amount of the test compound was weighted and placed in a glass tube. The compound was dissolved in a volume PEG200 corresponding to 25% of the final volume (at 4× concentration). The preparation was aliquoted in tubes protected from light and stored at 4° C. Before administration, a volume of MC (0.5%, w/v in sterile water) corresponding to 75% of the final volume (for 1× concentration) was added to the preparation and vortexed. The formulation (glass vial) was placed in an ultrasonic bath for homogenization. The glass vial containing the preparation was kept under agitation and protected from light until administration.
The Y-maze was used to assess short term memory (working memory) in mice. Spatial reference memory, which is underlined by the hippocampus, was tested by placing the test mice into the Y-maze with one arm closed off during training. After an intertrial interval, the mouse should remember which arm it has not explored previously and should visit this arm more often (Kraeuter, Guest, and Samyai 2019).

As to `CN(C)S(=O)(=O)C1CN(c2cc3nn(-c4ccc(F)cc4)cc3cn2)C1` [Compound 14, 1-(2-(4-fluorophenyl)-2H-pyrazolo[4,3-c]pyridin-6-yl)-N,N-dimethylazetidine-3-sulfonamide], the “Cumulative duration (sec) in the new arm of the Y-maze” value came out at 112.5 s. For the same compound, under setting [1], the “Effect on short-term spatial memory (Y-maze), day 7 post-surgery” value is reported as “significant beneficial effects”. Moreover, the “Effect on short-term spatial memory (Y-maze), day 14 post-surgery” value (day 14 post-surgery, compared to Aβ1-42-injected, vehicle treated mice (group ID 2), 5 mg/kg p.o. daily) is given as “significant beneficial effects”.
With `CN(C)S(=O)(=O)C1CN(c2ccc3cn(-c4ccccc4)nc3n2)C1` [Compound 66, N,N-dimethyl-1-(2-phenyl-2H-pyrazolo[3,4-b]pyridin-6-yl)azetidine-3-sulfonamide], the “Cumulative duration (sec) in the new arm of the Y-maze” value amounted to 104.4 s. For the same compound, under setting [1], the “Effect on short-term spatial memory (Y-maze), day 7 post-surgery” value is reported as “significant beneficial effects”.

(Values after patent publication US20250304575A1, “COMPOUNDS AND PHARMACEUTICAL COMPOSITIONS THEREOF FOR THE TREATMENT OF NEURODEGENERATIVE DISORDERS” (Galapagos NV, priority 2022, published 2025).)
